The values that follow come from ChEMBL document CHEMBL4706566, “New drug approvals for 2019: Synthesis and clinical applications” (Eur J Med Chem, 2020).

A short description of one data set: clinical. The following applies: human.
For data set [1], the target named is T1, D(2) dopamine receptor (Homo sapiens, UniProt P14416).
Description: Antagonist activity at postsynaptic D2 receptor (unknown origin)
Data set [2] has as its target T1, D(2) dopamine receptor. This is another data set of the same source.
Description: Partial agonist activity at presynaptic D2 receptor (unknown origin)
Data set [3] deals with 5-hydroxytryptamine receptor 2A (Homo sapiens, UniProt P28223).
5-hydroxytryptamine receptor 2A, sequence (P28223 whole entry): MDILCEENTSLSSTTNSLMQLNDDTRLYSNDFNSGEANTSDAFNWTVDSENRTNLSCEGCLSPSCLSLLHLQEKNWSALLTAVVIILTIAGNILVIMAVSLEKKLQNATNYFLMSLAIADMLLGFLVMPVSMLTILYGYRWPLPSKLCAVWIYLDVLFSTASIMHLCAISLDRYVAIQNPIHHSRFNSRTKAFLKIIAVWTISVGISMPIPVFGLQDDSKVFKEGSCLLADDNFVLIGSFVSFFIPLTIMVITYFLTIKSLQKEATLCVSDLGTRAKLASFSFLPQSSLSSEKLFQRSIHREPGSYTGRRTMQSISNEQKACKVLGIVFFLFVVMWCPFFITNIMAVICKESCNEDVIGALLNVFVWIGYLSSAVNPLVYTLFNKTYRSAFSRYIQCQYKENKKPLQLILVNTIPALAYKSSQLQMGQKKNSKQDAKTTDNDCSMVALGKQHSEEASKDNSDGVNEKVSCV
Description: Antagonist activity at 5HT2A receptor (unknown origin)

Molecules are shown by their SMILES.

T1 sequence (P14416 whole entry): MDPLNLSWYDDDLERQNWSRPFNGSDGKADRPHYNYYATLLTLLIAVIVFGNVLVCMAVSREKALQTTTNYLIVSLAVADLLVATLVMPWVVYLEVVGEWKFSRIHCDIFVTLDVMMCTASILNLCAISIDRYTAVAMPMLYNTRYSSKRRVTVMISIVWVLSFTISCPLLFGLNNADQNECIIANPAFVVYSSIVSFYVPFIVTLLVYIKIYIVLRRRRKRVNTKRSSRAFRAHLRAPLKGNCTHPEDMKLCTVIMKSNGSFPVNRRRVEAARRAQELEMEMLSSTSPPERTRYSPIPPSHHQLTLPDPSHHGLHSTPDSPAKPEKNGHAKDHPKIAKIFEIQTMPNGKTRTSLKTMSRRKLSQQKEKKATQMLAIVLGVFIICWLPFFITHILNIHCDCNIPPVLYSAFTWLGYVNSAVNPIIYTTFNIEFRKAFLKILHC

The compound `CCn1c(=O)c2c(nc(/C=C/c3ccc(OC)c(OC)c3)n2C)n(CC)c1=O` [ISTRADEFYLLINE] gave a half-life in “clinical” of 64 h.

As to `CN1CCN2c3c(cccc31)[C@@H]1CN(CCCC(=O)c3ccc(F)cc3)CC[C@@H]12` [LUMATEPERONE], the IC50 at D(2) dopamine receptor [1] worked out at 3.2 nM; against D(2) dopamine receptor [2] it was 4.1 nM; in data set [3], 0.54 nM.

Usually half-life stands for the time needed for the level to fall by half in the phase considered. Lower therefore signals rapid decline. By IC50 is commonly meant the concentration needed to halve the response being measured. Low values mean greater potency in that assay, high ones weaker potency in that assay.
